Data reported in ChEMBL document CHEMBL1201862, “PubChem BioAssay data set” (2004).
Calls of active or inactive are those of the source. Rule as the data show it: actives have a measured IC50 and inactives only a lower limit.

Target: Envelope glycoprotein gp160 (Human immunodeficiency virus 1, UniProt Q6QLK5)
Assay: inhibitors of HIV fusion peptide binding, primary screen, biochemical, uHTS, fluorescence dequenching (AID 1986)

Envelope glycoprotein gp160, sequence (Q6QLK5 whole entry, the tested form may be a part): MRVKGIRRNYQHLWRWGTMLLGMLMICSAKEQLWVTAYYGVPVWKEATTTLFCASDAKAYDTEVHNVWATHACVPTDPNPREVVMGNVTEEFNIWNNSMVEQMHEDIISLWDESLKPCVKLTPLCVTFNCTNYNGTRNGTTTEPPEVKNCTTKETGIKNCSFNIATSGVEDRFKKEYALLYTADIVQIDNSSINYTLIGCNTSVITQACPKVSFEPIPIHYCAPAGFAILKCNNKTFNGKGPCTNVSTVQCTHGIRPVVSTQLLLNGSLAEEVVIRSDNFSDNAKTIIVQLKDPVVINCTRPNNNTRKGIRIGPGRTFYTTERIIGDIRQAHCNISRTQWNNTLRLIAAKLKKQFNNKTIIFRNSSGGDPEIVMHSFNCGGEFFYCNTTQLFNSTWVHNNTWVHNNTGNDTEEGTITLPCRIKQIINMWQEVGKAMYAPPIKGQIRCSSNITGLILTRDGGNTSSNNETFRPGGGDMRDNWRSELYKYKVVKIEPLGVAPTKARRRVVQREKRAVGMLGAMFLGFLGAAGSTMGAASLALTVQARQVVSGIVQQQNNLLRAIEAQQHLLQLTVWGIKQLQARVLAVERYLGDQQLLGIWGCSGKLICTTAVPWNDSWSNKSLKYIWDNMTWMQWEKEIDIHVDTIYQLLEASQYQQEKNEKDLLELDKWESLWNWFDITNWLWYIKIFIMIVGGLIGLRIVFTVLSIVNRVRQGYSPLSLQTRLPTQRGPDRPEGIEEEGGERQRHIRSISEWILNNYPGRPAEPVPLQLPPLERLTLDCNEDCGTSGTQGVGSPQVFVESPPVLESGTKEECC

**Q.** O=C(O)c1cc(NN=C2c3ccccc3-c3ccccc32)ccc1Cl was tested. Which IC50 did it give?
**A.** 23.7 µM (active)

**Q.** For CCOc1cc(/C=C2\SC(=S)N(C(C(=O)O)c3ccccc3)C2=O)ccc1O (stereo not drawn), which IC50 is on record?
**A.** 22.6 µM (active)

**Q.** For Cc1ccc(-c2cc(C(=O)Nc3ccc(S(=O)(=O)Nc4onc(C)c4C)cc3)c3ccccc3n2)cc1, which IC50 is on record?
**A.** 18.1 µM (active)
